Data reported in patent publication US20210322327A1, “EXTRACELLULAR VESICLES COMPRISING STING-AGONIST” (Codiak BioSciences, Inc., priority 2018, published 2021).

What was measured:
[1] = system: B16F10 murine melanoma cells; assay: B16F10 tumor growth in C57BL/6 and STING knock-out mice; assay type: in vivo, C57BL/6 mice and C57BL/6-Tmem173^gt mice
Experimental: To confirm that the effects observed in FIGS. 54-58 were translated to anti-tumor activity, C57BL/6 mice and C57BL/6-Tmem173^gt mice were inoculated subcutaneously with 1×10^6 B16F10 murine melanoma cells (n=5 mice per group). Seven, ten, and thirteen days post-inoculation, the mice were injected intratumorally with PBS, exosomes, 20 μg of free 3-3 cAIMPdFSH, or 0.1 μg of 3-3 cAIMPdFSH loaded in PTGFRN-overexpressing exosomes. Tumor volumes were measured daily until day 19, and animals were sacrificed when tumor volume reached 2000 mm^3.

[2] = system: IFNβ, CXCL9, CXCL10, IFNγ; serum cytokines; assay: Cytokine levels after subcutaneous injection in naïve mice; assay type: in vivo, C57BL/6 mice; settings: 20 μg free, four hours
Experimental: To compare in vivo activity of free STING agonist and STING agonist-loaded exosomes beyond intratumoral dosing, naïve C57BL/6 mice were injected subcutaneously with PBS, exosomes, 20 μg of free 3-3 cAIMPdFSH or 0.2 μg 3-3 cAIMPdFSH loaded in PTGFRN-overexpressing exosomes. Four hours post-injection, lymph nodes, spleens, livers, and serum were collected and cytokine levels were measured.

STING pathway = STING pathway activation after intraperitoneal or intratumoral dose in B16F10 tumor-bearing mice; assay type: in vivo, C57BL/6 mice; settings: 20 μg single IP dose
Experimental: Five groups of C57BL/6 mice (n=4 mice per group) were inoculated subcutaneously with 5×10^5 B16F10 murine melanoma cells. Eight days post-inoculation the mice were injected intraperitoneally (IP) with a single dose of either PBS, 20 μg ML RR-S2, 0.2 μg ML RR-S2, 0.2 μg ML RR-S2 loaded in PTGFRN-overexpressing exosomes (Exo STING IP), or intratumorally (IT) with a single dose of 0.2 μg ML RR-S2 loaded in PTGFRN-overexpressing exosomes (Exo STING IT). The exosome-encapsulated STING agonist formulations were loaded and quantitated as described in Example 1.

A20 lymphoma cells = assay: CIVO intratumoral microinjection, cleaved caspase 3 staining; assay type: in vivo, BALB/cAnNHsd mice
Experimental: All experiments in mice were approved by IACUC Board of Presage Biosciences, Seattle, Wash. (Protocol number PR-001) and were performed at Presage in accordance with relevant guidelines and regulations. All relevant procedures were performed under anesthesia and all efforts were made to minimize pain and suffering. Female BALB/cAnNHsd mice (Envigo) with an average weight of 18 gm were used for experiments at 5-7 weeks of age. For generating A20 allografts, mice were inoculated with 1 million A20 cells in 100 μl inoculation volume.
CIVO intra-tumoral microinjections were performed as described in Klinghoffer et al. (2016) Science Translational Medicine. Briefly, mice (n=6 per time point, 4 and 24 hours) were enrolled in microinjection studies when implanted tumors reached the following approximate dimensions: 14 mm (length), 10 mm (width) and 7 mm (depth). […]
Images of every cell from each tissue section stained were captured by digital, automated, high-resolution whole-tissue scanning (3D Histech Panoramic 250 Flash). Tumor responses were quantified from image files from each tissue section using Presage's custom CIVO Analyzer image analysis platform. […] In order to mitigate the influence of pre-existing necrosis on biomarker measurements, injection sites that fall within largely acellular tumor regions are excluded prior to quantitative analysis. […]

SMILES	tumor regression ([1]; C57BL/6-Tmem173^gt mice, 20 μg free)	tumor regression ([1]; C57BL/6 mice, free, printed 20 g, days 7, 10, 13)	IFNβ gene expression in lymph nodes, spleens, livers [2]	IFNβ expression in tumor, pancreas and spleen (STING pathway)	cleaved caspase 3 (CC3) (A20 lymphoma cells; high dose free (printed 2 g), four and 24 hours)	cleaved caspase 3 (CC3) (A20 lymphoma cells; low dose free (printed 200 ng))
Nc1ncnc2c1ncn2[C@@H]1O[C@@H]2COP(=O)(S)O[C@H]3[C@@H](F)[C@H](n4cnc5c(=O)[nH]cnc54)O[C@@H]3COP(O)(=S)O[C@H]2[C@H]1F (stereo partly drawn) [3-3 cAIMPdFSH, 3′3′-cAIMPdFSH]	no tumor regression was observed	dramatically improved tumor regression	significantly elevated	–	–	–
Nc1ncnc2c1ncn2[C@@H]1O[C@@H]2COP(O)(=S)O[C@@H]3C(O)[C@@H](COP(O)(=S)O[C@H]2[C@H]1O)O[C@H]3n1cnc2c(N)ncnc21 (stereo partly drawn) [ML RR-S2 CDA]	–	–	–	induced IFNβ expression in the tumor, pancreas, and spleen above the PBS-treated group	dramatically increased at four and 24 hours	modest
